The values that follow come from paper PMC9103105 (2022).

The subject of assay [1] is Mut2 (DNA, aptamer) GATCGGGTGTGGGTGGCGTAAAGGGAGCATCGG
Nature of the assay: fluorescence anisotropy titration. To be noted: 100 mM Na+ (acetate), 10 mM MgCl2, 10 mM CaCl2; 20 mM Tris-acetate pH 8.4, room temperature. A general note: In fluorescence polarisation assays a small probe gives low polarisation when free and higher when bound to something large.

Assay [2] relates to aptamer 1.12.2 (DNA, aptamer) GATCGGGTGTGGGTGGCGTAAAGGGAGCATCGGACA
The assay can be described thus: fluorescence anisotropy titration. As to conditions: 100 mM Na+ (acetate), 10 mM MgCl2, 10 mM CaCl2; 20 mM Tris-acetate pH 8.4, room temperature.

Assay [3] shares this test system. Nature of the assay: fluorescence anisotropy competition. As to conditions: 100 mM Na+ (acetate), 10 mM MgCl2, 10 mM CaCl2, 20 mM Tris-acetate pH 8.4, 90 nM aptamer.
Assay [4] deals with aptamer–ssDNA {6–15} complex (DNA, duplex) GATCGGGTGTGGGTGGCGTAAAGGGAGCATCGGACA/CACCCACACC
Nature of the assay: circular dichroism. As to conditions: 100 mM Na+ (acetate), 10 mM MgCl2, 10 mM CaCl2; 20 mM Tris-acetate pH 8.4, room temperature; 1 µM complex, up to 10 µM OTA.

The subject of assay [5] is aptamer 1.12.2 (DNA, aptamer) GATCGGGTGTGGGTGGCGTAAAGGGAGCATCGGACA
The assay can be described thus: ITC. As to conditions: 100 mM Na+ (acetate), 10 mM MgCl2, 10 mM CaCl2; 20 mM Tris-acetate pH 8.4, 25 °C; one-site model.

One may read the KD as the concentration at which binding is half-saturated. The low end stands for a tighter complex, the high end for a looser complex. `C[C@@H]1Cc2c(Cl)cc(C(=O)N[C@@H](Cc3ccccc3)C(=O)NCc3c(O)ccc4c3Oc3cc(O)ccc3C43OC(=O)c4ccccc43)c(O)c2C(=O)O1` (stereo partly drawn): the values for the KD in assay [1] and in assay [2] were 192 nM and 183 ± 14 nM, respectively.
In assay [3] (tracer 5 nM OTA-Flu displaced), `C[C@@H]1Cc2c(Cl)cc(C(=O)N[C@@H](Cc3ccccc3)C(=O)O)c(O)c2C(=O)O1` came in with an L50 of 106.2 ± 6.4 nM. The compound also came in with a KI in assay [3] (tracer OTA-Flu displaced) of 36.3 ± 2.1 nM. Besides, the binding result in assay [4] is listed as “no”. The compound also had a KD in assay [5] of 131 ± 32 nM.
